Key:
Aster-A = molecular target: T1, Aster-A (Homo sapiens, UniProt Q96CP6); test: Fluorescence polarisation (FP) competition with NBD-cholesterol, Aster-A; type: binding; conditions: for IC50: mean of three experiments run in technical duplicates; for inhibition at 10 µM / Aster-A (FP) inhibition: single dose, Dose = 10 µM
T1 construct: Aster-A(359-547); GST (PreScission-cleavable) (N, cleaved yes); made in house; host or cells: E. coli OverExpress C41
T1 sequence (Q96CP6 359-547): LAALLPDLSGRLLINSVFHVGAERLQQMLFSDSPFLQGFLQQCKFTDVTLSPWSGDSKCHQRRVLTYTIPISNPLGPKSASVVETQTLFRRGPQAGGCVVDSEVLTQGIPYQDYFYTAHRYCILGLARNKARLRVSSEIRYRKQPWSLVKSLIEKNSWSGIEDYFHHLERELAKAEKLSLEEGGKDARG
Text: (§1) Protein expression constructs
(§2) Human ASTER domains of Aster-A(359-547), -B(364-552) and -C(318-504) were subcloned into a pGEX-6p-2rbs vector, thus introducing the cloning artifact ‘GPLGS’.3 The pGEX-6P-1-GST-OSBP(377- […]
(§3) a gift from James H. Hurley (University of California).4 The pHIS_2His6_Thrombin_STARD4(2-205;C75S) plasmid was a gift from Young Jun Im (Chonnam National University).5 STARD5A was a gift from Nicola Burgess-Brown (Addgene plasmid #42392; http://n2t.net/addgene:42392; […]
(§4) Protein expression and purification […]
(§5) vectors including an N-terminal PreScission-cleavable glutathione S-transferase (GST)-tag were expressed in Escherichia coli (E. coli) OverExpress C41 in Terrific Broth (TB) medium for 16 h at 18 °C after the induction with 0.1 mM isopropyl β-D-1-thiogalactopyranoside (IPTG). Cells were harvested at 3500 × g for 15 minutes and lysed by sonication in buffer containing 50 mM HEPES pH 7.5, 300 mM NaCl, 10 %v/v glycerol, 5 mM dithiothreitol (DTT), 0.1 %v/v Triton X-100 and protease inhibitor mix HP plus (Serva). The lysate was purified by affinity chromatography on a GSTrap FF column (Cytiva) using an ÄKTA Start (Cytiva) in buffer containing 50 mM HEPES pH 7.5, 300 mM NaCl, 10 %v/v glycerol, 5 mM DTT and 0.01 %v/v Triton X-100. The GST-tag was cleaved overnight on the column at 4 °C. The Aster sterol binding domains were further purified by size-exclusion chromatography (SEC) on a HiLoad 16/600 Superdex 75 pg (Cytiva) in buffer containing 20 mM HEPES pH 7.5, 300 mM NaCl, 10 %v/v […]
(§6) STARD5(6-213) harboring an N-terminal His6-Tag were expressed in E. coli BL21(DE3) in Luria-Bertani Broth (LB) medium for approximately 16 h at 18 °C after induction with 0.15 mM IPTG. Cells were harvested at 3500 × g for 15 minutes and lysed by sonication in buffer containing 50 mM HEPES pH 7.5, 150 mM NaCl, 5 %v/v glycerol, 5 mM DTT, 0.1 %v/v Triton X -100 and ethylenediaminetetraacetic acid (EDTA)-free protease inhibitor cocktail (Sigma-Aldrich). The cleared lysate was purified by affinity chromatography on a Ni-NTA Superflow Cartridge (Qiagen) using an ÄKTA Start (Cytiva) in buffer containing 50 mM HEPES pH 7.5, 150 mM NaCl, 5 %v/v glycerol, 5 mM DTT. START domains were eluted by using elution buffer containing 50 mM HEPES pH 7.5, 150 mM NaCl, 5 %v/v glycerol, 5 mM DTT and 500 mM imidazole. Proteins were further purified by SEC on a HiLoad 16/600 Superdex 75 pg (Cytiva) in buffer containing 20 mM HEPES pH 7.5, 150 mM NaCl, 5 %v/v glycerol and 2 mM DTT.
(§7) The ORP domain of human OSBP(377-807) in the pGEX-6p-1 vector with an N-terminal PreScission-cleavable GST-tag was expressed in E. coli OverExpress C41 in LB medium for 16 h at 18 °C after induction with 0.1 mM IPTG. Cells were harvested at 3500 × g for 15 minutes and lysed by sonication in buffer containing 20 mM HEPES pH 7.5, 300 mM NaCl, 10 %v/v glycerol, 5 mM DTT, 0.1 %v/v Triton X-100 and EDTA-free protease inhibitor cocktail (Sigma-Aldrich). The cleared lysate was purified by affinity chromatography on a GSTrap HF column (Cytiva) using an ÄKTA Start (Cytiva) in buffer containing 20 mM HEPES pH 7.5, 300 mM NaCl, 10 %v/v glycerol, 5 mM DTT. OSBP(377 -807) was eluted by using elution buffer containing 20 mM HEPES pH 7.5, 300 mM NaCl, 10 %v/v glycerol, 5 mM DTT and 10 mM reduced glutathione. Proteins were further purified by SEC on a HiLoad 16/600 Superdex 75 pg (Cytiva) using an ÄKTA Explorer (Cytiva) in buffer containing 20 mM HEPES pH 7.5, 150 mM NaCl, 10 %v/v glycerol and 2 mM DTT.
(§8) The ORP domains of human ORP1(534-950) in pET24b(+) and ORP2(49-480) in the pET24b(+) vector including an N-terminal His6-Tag were expressed in E. coli BL21(DE3) in TB medium for approximately 16 h at 18 °C after induction with 0.1 mM IPTG. Cells were collected at 3500 × g for 15 minutes and lysed by sonification in buffer containing 10 mM Tris-HCl pH 8, 300 mM NaCl, 5 % glycerol, 2 mM DTT, 0.1 % Triton X-100 and EDTA-free protease inhibitor cocktail (Sigma-Aldrich). The cleared […]

Aster-B = molecular target: T2, Aster-B (Homo sapiens, UniProt Q3KR37); test: Fluorescence polarisation (FP) competition with NBD-cholesterol, Aster-B; type: binding; conditions: for IC50: mean of three experiments run in technical duplicates; for inhibition at 10 µM / Aster-B (FP) inhibition: single dose, Dose = 10 µM
T2 construct: -B(364-552); GST (PreScission-cleavable) (N, cleaved yes); made in house; host or cells: E. coli OverExpress C41
T2 sequence (Q3KR37 364-552): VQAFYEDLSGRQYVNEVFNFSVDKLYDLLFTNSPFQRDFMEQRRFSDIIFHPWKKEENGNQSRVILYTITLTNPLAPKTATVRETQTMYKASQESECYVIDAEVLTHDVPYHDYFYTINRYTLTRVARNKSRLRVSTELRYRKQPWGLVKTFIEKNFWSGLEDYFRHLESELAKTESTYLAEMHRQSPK
Text: as §1, §2, §3, §4, §5, §6, §7, §8

Structure (SMILES)	IC50 (Aster-A)	inhibition at 10 µM (Aster-A)	IC50 (Aster-B)	inhibition at 10 µM (Aster-B)	Aster-A (FP) inhibition (Aster-A)	Aster-B (FP) inhibition (Aster-B)
C[C@]12CC[C@@H]3C[C@H]1CC[C@@]21C(=Nc2ccc(Br)cc21)O3 (racemic) [Compound 15b]	4.3 µM	67%	> 80 µM	19%	–	–
CC12CCC3CC1CCC21C(=Nc2ccc(N4CCOCC4)cc21)O3 (racemic) [Compound 19a]	0.77 µM	60%	> 80 µM	14%	–	–
CC12CCC3CC1CCC21C(=Nc2ccc(Br)cc21)O3 (single isomer, unassigned; (+)) [(+)-15b]	35 µM	2%	> 80 µM	3.33%	–	–
CC12CCC3CC1CCC21C(=Nc2ccc(N4CCOCC4)cc21)O3 (single isomer, unassigned; (+)) [(+)-19a]	15.4 µM	–	> 80 µM	7.5%	12%	–
CC12CCC3CC1CCC21C(=Nc2ccc(N4CCOCC4)cc21)O3 (single isomer, unassigned; (-)) [(−)-19a]	0.46 µM	–	> 80 µM	–	79%	7%
C[C@@]12CC[C@H]3C[C@@H]1CC[C@]21C(=Nc2ccc(Br)cc21)O3 [(−)-15b]	4.14 µM	80%	> 80 µM	14%	–	–
CC(C)Oc1ccc(C(=O)Nc2nc3c(s2)CN(C(=O)OC(C)(C)C)CC3)cc1 [Autogramin-2, reference compound]	1.09 µM	–	> 80 µM	–	70%	5%
Cc1c2c(nc3ccccc13)[C@@]1(C)CC[C@@H](O)C[C@H]1CC2 [Compound 2a]	–	1%	–	14%	–	–
C[C@]12CC[C@@H](O)C[C@H]1CCc1c2nc2ccccc2c1-c1ccccc1 [Compound 2b]	–	–	–	–	-2%	2.5%
Cc1c2c(nc3cc(Br)ccc13)[C@@]1(C)CC[C@@H](O)C[C@H]1CC2 [Compound 2c]	–	–	–	–	-1%	9%
C[C@]12CC[C@@H](O)C[C@H]1CCc1c2nc2ccccc2c1-c1ccc(F)cc1 [Compound 2d]	–	-6%	–	7.5%	–	–
C[C@]12CC[C@@H](O)C[C@H]1CCc1c2nc2ccc(Cl)cc2c1-c1ccccc1 [Compound 2e]	–	–	–	–	-4%	2.5%
C[C@]12CC[C@@H](O)C[C@H]1CCc1c2[nH]c2ncccc12 [Compound 3]	–	-2%	–	8%	–	–
C[C@]12CC[C@@H](O)C[C@H]1CCC[C@]21Nc2ccccc2-n2cccc21 [Compound 4]	–	-9%	–	-0.833%	-8%	-1.67%
C[C@]12CC[C@@H](O)C[C@H]1CCC[C@]21NC(=O)c2ccccc2N1 [Compound 5a]	–	0%	–	10%	-2%	7%
C[C@]12CC[C@@H](O)C[C@H]1CCC[C@]21NC(=O)c2ccc(F)cc2N1 [Compound 5b]	–	-1%	–	15%	-2%	8%
COc1ccc2c(c1)C(=O)N[C@]1(CCC[C@@H]3C[C@H](O)CC[C@@]31C)N2 [Compound 5c]	–	–	–	12%	-1%	10%
C[C@]12CC[C@@H](O)C[C@H]1CCc1nc3ccccc3nc12 [Compound 7a]	–	14%	–	23%	–	–
Cc1cc2nc3c(nc2cc1C)[C@@]1(C)CC[C@@H](O)C[C@H]1CC3 [Compound 7b]	–	-1%	–	7.5%	–	–
C[C@]12CC[C@@H](O)C[C@H]1CCc1nc3cc(F)c(F)cc3nc12 [Compound 7c]	–	–	–	–	-1%	4%
C[C@]12CC[C@@H](O)C[C@H]1CCc1nc3cc(Cl)c(Cl)cc3nc12 [Compound 7d]	–	–	–	–	1%	11%

— publication PMC11758220, “Identification of a Privileged Scaffold for Inhibition of Sterol Transport Proteins through the Synthesis and Ring Distortion of Diverse, Pseudo-Natural Products” (ACS Central Science, 2025)
